According to BindingDB's records for doi:10.1016/j.bmcl.2003.11.032 (Abbott Laboratories, 2004):

What was measured:
Histamine H3 receptor [1] = target: Histamine H3 receptor (Rattus norvegicus, UniProt Q9QYN8); assay: Binding potency was determined by displacement of [3H]N-alpha-methyl histamine from histamine H3 receptor of rat cortical membranes
Histamine H3 receptor [2] = target: Histamine H3 receptor (Homo sapiens, UniProt Q9Y5N1); assay: Binding potency was determined by displacement of [3H]N-alpha-methyl histamine from cloned human histamine H3 receptor expressed in C6 cells
Histamine H3 receptor (Homo sapiens, UniProt Q9Y5N1), sequence (Q9Y5N1 whole entry): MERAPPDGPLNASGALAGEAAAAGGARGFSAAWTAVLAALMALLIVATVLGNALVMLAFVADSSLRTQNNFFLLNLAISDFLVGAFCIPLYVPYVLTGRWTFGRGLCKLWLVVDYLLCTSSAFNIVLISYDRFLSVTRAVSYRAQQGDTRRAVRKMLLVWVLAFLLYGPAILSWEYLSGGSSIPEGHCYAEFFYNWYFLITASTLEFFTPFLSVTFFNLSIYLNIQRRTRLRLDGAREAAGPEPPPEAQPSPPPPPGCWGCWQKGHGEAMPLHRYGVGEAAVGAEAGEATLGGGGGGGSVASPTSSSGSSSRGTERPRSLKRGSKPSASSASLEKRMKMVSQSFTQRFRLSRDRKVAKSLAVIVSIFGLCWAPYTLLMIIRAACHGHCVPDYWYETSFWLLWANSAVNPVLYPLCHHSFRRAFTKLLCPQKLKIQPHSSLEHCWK

Histamine H3 receptor (Rattus norvegicus, UniProt Q9QYN8), sequence (Q9QYN8 whole entry): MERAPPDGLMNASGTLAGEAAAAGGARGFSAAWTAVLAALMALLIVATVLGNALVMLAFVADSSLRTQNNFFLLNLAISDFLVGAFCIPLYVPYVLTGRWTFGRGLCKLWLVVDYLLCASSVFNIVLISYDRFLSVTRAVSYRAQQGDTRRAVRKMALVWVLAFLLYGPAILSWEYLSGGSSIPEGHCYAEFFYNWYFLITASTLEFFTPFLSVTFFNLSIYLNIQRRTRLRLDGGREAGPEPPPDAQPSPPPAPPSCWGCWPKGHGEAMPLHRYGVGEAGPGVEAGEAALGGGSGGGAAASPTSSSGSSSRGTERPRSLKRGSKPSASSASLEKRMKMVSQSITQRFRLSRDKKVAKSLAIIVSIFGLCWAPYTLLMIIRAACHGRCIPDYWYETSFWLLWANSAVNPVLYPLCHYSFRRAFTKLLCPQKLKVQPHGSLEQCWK

Ki (Histamine H3 receptor [1]) | Ki (Histamine H3 receptor [2]) | Compound
13 nM | – | CC1CCCCN1CCc1cc2cc(-c3ccc(C(=O)N4CCOCC4)cc3)ccc2o1 (configuration not stated) [(4-{2-[2-(2-Methyl-piperidin-1-yl)-ethyl]-benzofuran-5-yl}-phenyl)-morpholin-4-yl-methanone]
– | 13 nM | O=C(c1ccc(-c2ccc3oc(CCN4CCCCC4)cc3c2)nc1)N1CCOCC1 [Morpholin-4-yl-{6-[2-(2-piperidin-1-yl-ethyl)-benzofuran-5-yl]-pyridin-3-yl}-methanone]
